One series concerns T1074 cells. The experiment in a line: MTT cell viability assay, T1074. It is filed as cell-based, human. The note with it: Homo sapiens. The protocol: Metastatic ovarian adenocarcinoma (SKOV-3) and normal Chinese hamster ovary (CHO) cell lines were originally obtained from the American Type Culture Collection (ATCC; Manassas, VA). SKOV-3 cells were cultured in McCoy’s 5A medium and CHO cells were cultured in F12K medium. A human periodontal ligament fibroblast cell line was purchased from Lonza, USA and maintained in stroma cell basal medium. T1074 (normal immortalized human ovarian surface epithelial cell line) was originally purchased from Applied Biological Materials (abm®) Canada and cultured in Prigrow 1 medium.
The inhibitory effects of artonin E and two positive controls paclitaxel and carboplatin were examined by MTT assay. Cells at a density of 5×10^3cells/well were placed in a 96-well plate and left for 24 h to attach. The attached cells were exposed to artonin E, paclitaxel, and carboplatin at different concentrations and incubated for 24, 48, and 72 h. Subsequently, 20 μL of 5 mg/mL MTT solution was added after drug treatment and the resulting mixture was incubated for 4 h to form purple formazan. Afterward, 100 μL of dimethyl sulfoxide (DMSO) was transferred into each well to dissolve the purple formazan, and results were measured using a microplate reader (Tecan Infinite M 200 PRO, Männedorf, Switzerland) at an absorbance of 570 nm. The half-maximal concentrations that caused cell growth inhibition (IC50 values) were obtained from the MTT viability growth curve.

Series [1] concerns SKOV-3 cells. The experiment in a line: Cell cycle analysis by flow cytometry. The settings on record: SKOV-3, 8 μg/mL, 72 h after treatment. It is filed as cell-based, human. As for the experimental part: SKOV-3 cells at a concentration of 5×10^5 cells were plated into a T75cm^2 flask and incubated overnight to allow attachment. The attached cells were treated with 8 μg/mL of artonin E at different time points. After treatment, the cells were trypsinized and centrifuged at 1,500 rpm for 10 min. The fresh pellets were washed twice with PBS, fixed with 500 μL of 70% cold ethanol, and incubated at −20°C overnight. The remaining ethanol was then removed and the cells were resuspended in PBS containing 20 μL of RNase A (10 μg/mL) and 2 μL of PI (2.5 μg/mL). The resulting mixture was incubated for 30 min at 37°C in the dark. Samples were immediately analyzed using FACS Canto 11 Becton-Dickinson flow cytometry. For each sample, 10,000 cells were measured. ModFit LT software (Verity Software House, Topsham, ME) was used to analyze the percentage of cells at different phases.

Series [2] concerns SKOV-3 cells. The series is described as follows: Multiparametric Cytotoxicity 3 high-content screening. Format: cell-based, human. The settings on record: SKOV-3, 8 μg/mL. The protocol: Cellomics Multiparameter Cytotoxicity 3 kit (Thermo Scientific^TM, Pittsburgh, PA, USA) was used to perform simultaneous detection of the crucial apoptotic events in SKOV-3 cells treated with artonin E. Briefly, SKOV-3 cells were seeded at a density of 5000 cells/well in a black flat-bottomed 96-well plates (PerkinElmer, Inc., Wellsley, MA, USA) and left overnight to attach. The attached cells were treated with 8 μg/mL artonin E for 24, 48, and 72 h. The treated cells were then exposed to 50 μL of live cell staining solution for 30 min. The excess medium and live cell staining solution were gently removed and the cells were then fixed with 16% paraformaldehyde. After fixation, the cells were exposed with permeabilization buffer followed by blocking buffer for 15 min at room temperature. Primary Cytochrome C antibodies and secondary DyLight 649 conjugated goat antimouse IgG were added and allowed to interact for 1 h each. Hoechst 33342 dye was used to stain nuclei in SKOV-3 cells. Stained SKOV-3 cells in the 96-well plates were analyzed using ArrayScan high-content screening (HCS) system. All experiments were conducted in triplicates and experiments were repeated twice.

In a further series the test system is caspase-3. The series is described as follows: Colorimetric caspase-3 activation assay. The note with it: SKOV-3, 8 μg/mL, 48 and 72 h treatment. It is filed as cell-based, human. As for the experimental part:
Calorimetric assay of the activation of caspases-3, -8, and -9 was conducted using R & D system kit, USA. Briefly, in a T75cm^2 flask 90% confluent SKOV-3 cells were induced with artonin E for 24, 48, and 72 h. The induced cells were trypsinized and centrifuged at 1,800 rpm for 10 min. The fresh pellets were washed with cold PBS and immediately lysed with protein lysis buffer. The cell lysate was then kept on ice for 10 min, centrifuged at 10,000 g for 15 min, and transferred into a new tube. The fresh cell lysate (50 μL), which contained 100–200 μg of protein, was added into a 96-well plate in triplicate. Fifty microliters of reaction buffer and 5 μL of caspase were then transferred into each designated well before incubating the plate in a CO2 incubator at 37°C for 2 h. A microplate reader (Tecan Infinite M 200 PRO, Männedorf, Switzerland) was used for analysis at a wavelength of 405 nm.

Another series relates to Bax. The experiment in a line: Western blot, Bax. It is filed as cell-based, human. The note with it: SKOV-3, 8 μg/mL, time-dependent. As for the experimental part:
(§1) SKOV-3 cells were plated in a 75cm^2 culture flask and exposed to artonin E for 24, 48, and 72 h. Lysis buffer (50 mM Tris–HCl, pH 8.0; 120 mM NaCl, 0.5% NP-40; and 1 mM PMSF) was used to extract the total protein. Protein concentration was determined using a BCA protein assay reagent kit (Bio-Rad, USA). Equal amounts of protein (40 μg) extract were subjected to SDS-PAGE and electroblotted onto a polyvinylidenedifluoride membrane (Bio-Rad). Blots were then blocked with 5% non-fat milk in TBS-Tween buffer 7 (0.12 M Tris-base, 1.5 M NaCl, and 0.1% Tween 20) for 1 h at room temperature. After incubating with the appropriate primary antibody overnight at 4°C, the blots were washed and then incubated with horseradish peroxidase conjugated secondary antibody for 1 h at room temperature. The protein bands were detected using pico or femto chemiluminescence (ECL system) and visualized using a UV gel documentation system. The subsequent primary antibodies, which include those for β-actin (1:10,000), Bax (1:10,000), Bcl-2 (1:10,000), HSP-70 (1:10,000), survivin (1:10,000),caspase -3 (1:10,000), caspase -8 (1:10,000), caspase -9 (1;10,000) and cytochrome c (1:200) were purchased from Abcam, Cambridge, United Kingdom.

The next series deals with survivin. The series is described as follows: Western blot, survivin. It is filed as cell-based, human. The settings on record: SKOV-3, 8 μg/mL, 72 h after treatment. As for the experimental part:
as §1

Series [3] deals with arachidonate 5-lipoxygenase. The arrangement: method as in PMID 14559276. The note with it: read-out: IC50 value, arachidonate 5-lipoxygenase inhibition; cited from earlier work.

≈ marks a conversion by molar mass, not a printed value.

For `CC(C)=CCc1c(-c2cc(O)c(O)cc2O)oc2c3c(cc(O)c2c1=O)OC(C)(C)C=C3` [Artonin E, artonin E], the IC50 is 44.8 ± 0.76 µg/mL (≈ 103 µM) in the series with T1074 cells (24 h treatment), 37.5 ± 0.53 µg/mL (≈ 85.9 µM) in the series on T1074 cells (48 h treatment), 32.5 ± 0.5 µg/mL (≈ 74.5 µM) in the series with T1074 cells (72 h treatment) and 0.36 µM in series [3]. For the same compound, the “accumulation of cells arrested at the S phase” value in the series on SKOV-3 cells [1] is listed as “significantly (p<0.05) increased”. Besides, the “cytochrome c fluorescence intensities” value with SKOV-3 cells [2] (prolonged treatment periods) is “increase”. Further, the cell permeability entry with SKOV-3 cells [2] (time-dependent (24, 48, 72 h)) was “marked increased”. The “green fluorescence intensity of MMP” value with SKOV-3 cells [2] (time-dependent (24, 48, 72 h)) is given as “significant (p<0.05) reduction”. Besides, the “activation of caspase-3” value with caspase-3 is given as “significantly (p<0.05)elevated”. Moreover, the “expression of Bax” value with Bax is on record as “upregulates”. Further, the “level of survivin expression” value with survivin was “reduced significantly”.

(Values after PMC4809498, “Artonin E Induces Apoptosis via Mitochondrial Dysregulation in SKOV-3 Ovarian Cancer Cells” (PLoS ONE, 2016).)
